Counter-ions that a name gives are not always drawn. Some results are limits rather than exact numbers.

The subject of this test is HCT116. To be noted: 72 h. An outline of the steps:
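HCT116 cells went into 1536-well plates at 250 per well. CellTiter-Glo luminescence was expressed relative to vehicle (0%) and positive control (-100%) and then pattern-corrected. Both IC50 and maximal efficacy were taken from four-parameter Hill fits.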

On to `C[C@H]1O[C@@H](n2cc(F)c(=O)[nH]c2=O)[C@H](O)[C@@H]1O` [Doxifluridine], for which the IC50 cell viability was above 45.8 µM (ICRF193 0 nM) and above 45.8 µM (ICRF193 200 nM).

For `CCCCCCCCCC(=O)OC1(c2ccc(Cl)cc2)CCN(CCCC(=O)c2ccc(F)cc2)CC1` [HALOPERIDOL DECANOATE], the IC50 cell viability is above 45.8 µM (ICRF193 0 nM) and above 45.8 µM (ICRF193 200 nM).

As for `CCCCc1cc2ccccc2c(OCCN(C)C)n1` [Dimethisoquin hydrochloride], the IC50 cell viability runs as follows: (ICRF193 0 nM) above 45.8 µM; (ICRF193 200 nM) above 45.8 µM.

On to `CC[C@H](C)[C@H](N)C(=O)O` (racemic) [DL-Isoleucine], for which the IC50 cell viability is above 45.8 µM (ICRF193 0 nM) and above 45.8 µM (ICRF193 200 nM).

Turning to `O=C1OC(c2ccc(O)cc2)(c2ccc(O)cc2)c2ccccc21` [Phenolphthalein], the IC50 cell viability (ICRF193 0 nM) is above 45.8 µM and the IC50 cell viability (ICRF193 200 nM) was above 45.8 µM.

`NC(=O)c1cnccn1` [Pyrazinamide]: the IC50 cell viability was above 45.8 µM (ICRF193 0 nM) and above 45.8 µM (ICRF193 200 nM).

As to `O=C(Nc1cccc(C2=NCCN2)c1)Nc1cccc(C2=NCCN2)c1` [Imidocarb dipropionate], the IC50 cell viability is, setting by setting: (ICRF193 0 nM) above 45.8 µM; (ICRF193 200 nM) above 45.8 µM.

Turning to `COCCCN1CCC(NC(=O)c2cc(Cl)c(N)c3c2OCC3)CC1` [Prucalopride], the IC50 cell viability reads like this: (ICRF193 0 nM) above 45.8 µM; (ICRF193 200 nM) above 45.8 µM.

Turning to `C=CC1=C(C(=O)O)N2C(=O)[C@@H](NC(=O)/C(=N\OCC(=O)O)c3csc(N)n3)[C@H]2SC1` [Cefixime], the IC50 cell viability reads like this: (ICRF193 0 nM) above 45.8 µM; (ICRF193 200 nM) above 45.8 µM.

`Cc1cccc(C)c1OCC(C)N` (stereo not given) [Mexiletene hydrochloride]: the IC50 cell viability by setting is: (ICRF193 0 nM) above 45.8 µM; (ICRF193 200 nM) above 45.8 µM.

The compound `O=C1c2ccccc2C(=O)c2ccccc21` [Anthraquinone] displayed an IC50 cell viability (ICRF193 0 nM) above 45.8 µM and an IC50 cell viability (ICRF193 200 nM) above 45.8 µM.

Take `Cc1ccc2c(c1)[C@]13CCCC[C@@H]1[C@H](C2)N(C)CC3` [Dimemorfan phosphate]: the IC50 cell viability (ICRF193 0 nM) was above 45.8 µM and the IC50 cell viability (ICRF193 200 nM) was above 45.8 µM.

With `CC(=O)O[C@]1(C(C)=O)CC[C@H]2[C@@H]3C=C(C)C4=CC(=O)CC[C@]4(C)[C@H]3CC[C@@]21C` [Megestrol acetate], the IC50 cell viability is above 45.8 µM (ICRF193 0 nM) and above 45.8 µM (ICRF193 200 nM).

Regarding `COC(=O)CCc1ccc(OCC(O)CNC(C)C)cc1` (stereo not given) [Esmolol hydrochloride], the IC50 cell viability is above 45.8 µM (ICRF193 0 nM) and above 45.8 µM (ICRF193 200 nM).

With `Cc1ccccc1-c1cc(N2CCN(C)CC2)ncc1N(C)C(=O)C(C)(C)c1cc(C(F)(F)F)cc(C(F)(F)F)c1` [Netupitant], the IC50 cell viability reads like this: (ICRF193 0 nM) above 45.8 µM; (ICRF193 200 nM) above 45.8 µM.

Turning to `CCN(CC)C(=O)N[C@@H]1C=C2c3cccc4[nH]cc(c34)C[C@@H]2N(C)C1` [(-)-(5S,8R)-Lisuride], the IC50 cell viability runs as follows: (ICRF193 0 nM) above 45.8 µM; (ICRF193 200 nM) above 45.8 µM.

For the compound `OC[C@H]1O[C@@H](c2ccc(Cl)c(Cc3ccc(O[C@H]4CCOC4)cc3)c2)[C@H](O)[C@@H](O)[C@@H]1O`, the IC50 cell viability is, setting by setting: (ICRF193 0 nM) above 45.8 µM; (ICRF193 200 nM) above 45.8 µM.

Take `CCCN1C[C@H](C)[C@@H](O)[C@](C)(O)[C@@H](CC)OC(=O)[C@H](C)[C@@H](O[C@H]2C[C@@](C)(OC)[C@@H](O)[C@H](C)O2)[C@H](C)[C@@H](O[C@@H]2O[C@H](C)C[C@H](N(C)C)[C@H]2O)[C@](C)(O)C[C@H]1C` [Gamithromycin]: the IC50 cell viability by setting is: (ICRF193 0 nM) above 45.8 µM; (ICRF193 200 nM) above 45.8 µM.

With `O=C(OCC(O)CO)c1ccccc1Nc1ccnc2c(C(F)(F)F)cccc12` (stereo not given) [Floctafenine], the IC50 cell viability reads like this: (ICRF193 0 nM) above 45.8 µM; (ICRF193 200 nM) above 45.8 µM.

As to `OCCc1ccccc1` [2-Phenylethanol], the IC50 cell viability is above 45.8 µM (ICRF193 0 nM) and above 45.8 µM (ICRF193 200 nM).

Take `CC(C)[C@@H](C)/C=C/[C@@H](C)[C@H]1CC[C@H]2/C(=C/C=C3\C[C@@H](O)CC[C@@H]3C)CCC[C@]12C` [Dihydrotachysterol]: the IC50 cell viability runs as follows: (ICRF193 0 nM) above 45.8 µM; (ICRF193 200 nM) above 45.8 µM.

As to `CC(C)C(=O)OCC(=O)[C@@]12O[C@H](C3CCCCC3)O[C@@H]1C[C@H]1[C@@H]3CCC4=CC(=O)C=C[C@]4(C)[C@H]3[C@@H](O)C[C@@]12C` [Ciclesonide], the IC50 cell viability is above 45.8 µM (ICRF193 0 nM) and above 45.8 µM (ICRF193 200 nM).

Regarding `CCCCC/C=C/C/C=C/CCCCCCCC(=O)NC(C)c1ccccc1` (stereo not given) [Melinamide], the IC50 cell viability (ICRF193 0 nM) was above 45.8 µM and the IC50 cell viability (ICRF193 200 nM) was above 45.8 µM.

With `Oc1ccccc1-c1ccccc1` [Sodium 2-phenylphenate tetrahydrate], the IC50 cell viability is above 45.8 µM (ICRF193 0 nM) and above 45.8 µM (ICRF193 200 nM).

With `COc1ccc(-c2cc(C(F)F)nn2-c2ccc(S(N)(=O)=O)cc2)cc1F` [Deracoxib], the IC50 cell viability (ICRF193 0 nM) was above 45.8 µM and the IC50 cell viability (ICRF193 200 nM) is above 45.8 µM.

In the case of `CC(C)CCC[C@@H](C)[C@H]1CC[C@H]2[C@@H]3CC[C@H]4C[C@@H](O)CC[C@]4(C)[C@H]3CC[C@]12C` [5alpha-Cholestan-3beta-ol], the IC50 cell viability was above 45.8 µM (ICRF193 0 nM) and above 45.8 µM (ICRF193 200 nM).

On to `COCC(=O)Nc1c(I)c(C(=O)NCC(O)CO)c(I)c(C(=O)N(C)CC(O)CO)c1I` (stereo not given) [Iopromide], for which the IC50 cell viability was above 45.8 µM (ICRF193 0 nM) and above 45.8 µM (ICRF193 200 nM).

As to `CO/N=C(\C(=O)N[C@@H]1C(=O)N2C(C(=O)O)=C(CSC(=O)c3ccco3)CS[C@H]12)c1csc(N)n1` [CEFTIOFUR HYDROCHLORIDE], the IC50 cell viability is, setting by setting: (ICRF193 0 nM) above 45.8 µM; (ICRF193 200 nM) above 45.8 µM.

With `Cc1cc(O)cc(C)c1Cl` [4-Chloro-3,5-dimethylphenol], the IC50 cell viability reads like this: (ICRF193 0 nM) above 45.8 µM; (ICRF193 200 nM) above 45.8 µM.

On to `CC(OC(=O)OC1CCCCC1)OC(=O)C1=C(CSc2nnnn2CCN(C)C)CS[C@@H]2[C@H](NC(=O)Cc3csc(N)n3)C(=O)N12` (stereo not given in full) [SCE 2174], for which the IC50 cell viability is above 45.8 µM (ICRF193 0 nM) and above 45.8 µM (ICRF193 200 nM).

For `CCOC(=O)C1(c2ccccc2)CCCN(C)CC1` (stereo not given) [Ethoheptazine hydrochloride], the IC50 cell viability by setting is: (ICRF193 0 nM) above 45.8 µM; (ICRF193 200 nM) above 45.8 µM.

On to `C1CCC(NC2CCCCC2)CC1` [Dicyclohexylamine], for which the IC50 cell viability runs as follows: (ICRF193 0 nM) above 45.8 µM; (ICRF193 200 nM) above 45.8 µM.

With `C[C@@H](N)C(=O)O` [D-Alanine], the IC50 cell viability is above 45.8 µM (ICRF193 0 nM) and above 45.8 µM (ICRF193 200 nM).

Take `N[C@@H]1C[C@H]1c1ccccc1` [Tranylcypromine hydrochloride]: the IC50 cell viability (ICRF193 0 nM) was above 45.8 µM and the IC50 cell viability (ICRF193 200 nM) was above 45.8 µM.

In the case of `CCCCCCCCCCCC(=O)OCN1C(=O)CCc2ccc(OCCCCN3CCN(c4cccc(Cl)c4Cl)CC3)cc21` [ARIPIPRAZOLE LAUROXIL], the IC50 cell viability (ICRF193 0 nM) is above 45.8 µM and the IC50 cell viability (ICRF193 200 nM) was above 45.8 µM.

For the compound `CN1CC2c3ccccc3Oc3ccc(Cl)cc3C2C1` (stereo not given) [Asenapine], the IC50 cell viability is above 45.8 µM (ICRF193 0 nM) and above 45.8 µM (ICRF193 200 nM).

Take `Cc1ccccc1OCC(O)CO` (stereo not given) [Mephenesin]: the IC50 cell viability (ICRF193 0 nM) is above 45.8 µM and the IC50 cell viability (ICRF193 200 nM) was above 45.8 µM.

Consider `c1ccc2c(c1)Nc1ccccc1S2` [Phenothiazine], for which the IC50 cell viability (ICRF193 0 nM) is above 45.8 µM and the IC50 cell viability (ICRF193 200 nM) is above 45.8 µM.

For the compound `CCN1CCN(C(=O)N[C@@H](C(=O)N[C@@H]2C(=O)N3C(C(=O)O)=C(CSc4nnnn4C)CS[C@H]23)c2ccc(O)cc2)C(=O)C1=O` [Cefoperazone sodium], the IC50 cell viability is above 45.8 µM (ICRF193 0 nM) and above 45.8 µM (ICRF193 200 nM).

With `C[C@@H]1[C@H](O)[C@@H](C)/C=C/C=C/C=C/C=C/C=C/C=C/C=C/[C@H](O[C@@H]2O[C@H](C)[C@@H](O)[C@H](N)[C@@H]2O)C[C@@H]2O[C@](O)(C[C@@H](O)C[C@@H](O)[C@H](O)CC[C@@H](O)C[C@@H](O)CC(=O)O[C@H]1C)C[C@H](O)[C@H]2C(=O)O` [Amphotericin B], the IC50 cell viability by setting is: (ICRF193 0 nM) above 45.8 µM; (ICRF193 200 nM) above 45.8 µM.

For `NC(=O)N1c2ccccc2C=Cc2ccccc21` [Carbamazepine], the IC50 cell viability was above 45.8 µM (ICRF193 0 nM) and above 45.8 µM (ICRF193 200 nM).

For the compound `Cc1ccc(C)c(OCCCC(C)(C)C(=O)O)c1` [Gemfibrozil], the IC50 cell viability is, setting by setting: (ICRF193 0 nM) above 45.8 µM; (ICRF193 200 nM) above 45.8 µM.

As for `COc1c2c(cc3c1OCO3)CCN(C)C2` [Hydrocotarnine hydrobromide], the IC50 cell viability is, setting by setting: (ICRF193 0 nM) above 45.8 µM; (ICRF193 200 nM) above 45.8 µM.

Consider `CCN(CC)C(=O)N[C@H]1C[C@@H]2c3cccc4[nH]cc(c34)C[C@H]2N(C)C1` [Terguride], for which the IC50 cell viability is, setting by setting: (ICRF193 0 nM) above 45.8 µM; (ICRF193 200 nM) above 45.8 µM.

On to `CC(=O)OCC(=O)[C@@]12OC3(CCCC3)O[C@@H]1C[C@H]1[C@@H]3CCC4=CC(=O)C=C[C@]4(C)[C@@]3(F)[C@@H](O)C[C@@]12C` [AMCINONIDE], for which the IC50 cell viability was above 45.8 µM (ICRF193 0 nM) and above 45.8 µM (ICRF193 200 nM).

Turning to `N#Cc1c(N(CC(=O)O)CC(=O)O)sc(C(=O)O)c1CC(=O)O` [Strontium Ranelate], the IC50 cell viability runs as follows: (ICRF193 0 nM) above 45.8 µM; (ICRF193 200 nM) above 45.8 µM.

With `O=C(O)c1ccc(NC(=O)[C@H](Cc2ccc(O)cc2)NC(=O)c2ccccc2)cc1` [Bentiromide sodium], the IC50 cell viability by setting is: (ICRF193 0 nM) above 45.8 µM; (ICRF193 200 nM) above 45.8 µM.

In the case of `COc1cc2c(cc1OC)[C@H]1C[C@@H](OC(=O)[C@@H](N)C(C)C)[C@H](CC(C)C)CN1CC2` [Valbenazine], the IC50 cell viability by setting is: (ICRF193 0 nM) above 45.8 µM; (ICRF193 200 nM) above 45.8 µM.

Regarding `Nc1c(Br)cc(Br)cc1CN[C@H]1CC[C@H](O)CC1` [Ambroxol hydrochloride], the IC50 cell viability runs as follows: (ICRF193 0 nM) above 45.8 µM; (ICRF193 200 nM) above 45.8 µM.

Take `CCCCC(C)(O)C/C=C/[C@H]1[C@H](O)CC(=O)[C@@H]1CCCCCCC(=O)OC` (mixture of isomers) [Misoprostol]: the IC50 cell viability is above 45.8 µM (ICRF193 0 nM) and above 45.8 µM (ICRF193 200 nM).

For the origin of these results see the supplement of paper PMC12137928.
